Source: the Deep4Chem optical property database
Where “and” joins values, the source holds several entries; their conditions need not be identical. Equal values may be shown once. Blank lines part the entries; values can stand above or below the molecule they belong to.

Assay: photoluminescence quantum yield (fraction); solvent given as SMILES

SMILES: CC(C)[Si]1(C(C)C)c2cc(C#N)ccc2-c2ccc(N(c3ccccc3)c3ccccc3)cc21
photoluminescence quantum yield (in C1CCCCC1): 0.64
photoluminescence quantum yield (in CC#N): 0.67
photoluminescence quantum yield (in CCO): 0.72
photoluminescence quantum yield (in CCOCC): 0.74
photoluminescence quantum yield (in CS(C)=O): 0.81
photoluminescence quantum yield (in ClCCl): 0.8
photoluminescence quantum yield (in c1ccccc1): 0.75

SMILES: COc1ccc(/C=C/C2=CC(/C=C/c3ccc(OC)c4ccccc34)=[O+][B-](F)(F)O2)c2ccccc12
photoluminescence quantum yield (in CC#N): 0.12
photoluminescence quantum yield (in CC(C)=O): 0.21
photoluminescence quantum yield (in CCOC(C)=O): 0.31
photoluminescence quantum yield (in CCOCC): 0.29
photoluminescence quantum yield (in ClC(Cl)(Cl)Cl): 0.23
photoluminescence quantum yield (in ClCCl): 0.39

SMILES: c1ccc(-c2nn(-c3ccccc3)c3nc4ccc(-n5c6ccccc6c6ccccc65)cc4cc23)cc1
photoluminescence quantum yield (in C1CCCCC1): 0.88
photoluminescence quantum yield (in C1CCOC1): 0.81
photoluminescence quantum yield (in CC#N): 0.72
photoluminescence quantum yield (in CC(C)=O): 0.72
photoluminescence quantum yield (in CCCCCl): 0.88
photoluminescence quantum yield (in CCCCOCCCC): 0.7
photoluminescence quantum yield (in CN(C)C=O): 0.76

SMILES: CCC1=C(C)C(=O)n2c1cc1c(C)c(CC)c(C)n1c2=O
photoluminescence quantum yield (in CO): 0.93
photoluminescence quantum yield (in CS(C)=O): 0.98
photoluminescence quantum yield (in ClC(Cl)Cl): 1
photoluminescence quantum yield (in c1ccccc1): 0.98

SMILES: Nc1ccc2c3cccc4cccc(c5cccc1c52)c43
photoluminescence quantum yield (in C1CCCCC1): 0.55
photoluminescence quantum yield (in C1CCOC1): 0.58
photoluminescence quantum yield (in C1COCCO1): 0.28
photoluminescence quantum yield (in CC(C)=O): 0.5
photoluminescence quantum yield (in CCCCOCCCC): 0.24
photoluminescence quantum yield (in CCOC(C)=O): 0.2
photoluminescence quantum yield (in CN(C)C=O): 0.56
photoluminescence quantum yield (in CO): 0.45
photoluminescence quantum yield (in ClCCl): 0.47

SMILES: N#Cc1c(-n2c3ccccc3c3ccccc32)c(-n2c3ccccc3c3ccccc32)c(C#N)c(-n2c3ccccc3c3ccccc32)c1-n1c2ccccc2c2ccccc21
photoluminescence quantum yield (in Cc1ccccc1): 0.716 and 0.72

SMILES: F[B-]1(F)n2cccc2C(c2ccccc2)=C2C=CC=[N+]21
photoluminescence quantum yield (in Cc1ccccc1): 0.053
photoluminescence quantum yield (in ClCCl): 0.74

SMILES: CCOC(=O)/N=c1/oc2cc(OC)ccc2cc1C#N
photoluminescence quantum yield (in ClCCl): 0.0065

SMILES: Cc1cccc2nc3c(=O)n(C)c(=O)nc-3n(C)c12
photoluminescence quantum yield (in CC#N): 0.07

SMILES: Cc1ccc2c(c1)nc1c(=O)n(C)c(=O)nc-1n2C
photoluminescence quantum yield (in CC#N): 0.43

SMILES: F[B-]1(F)n2c(Nc3cccc4cccnc34)ccc2C(c2ccccc2)=C2C=CC(Cl)=[N+]21
photoluminescence quantum yield (in C1CCCCC1): 0.17
photoluminescence quantum yield (in CC#N): 0.0024
photoluminescence quantum yield (in Cc1ccccc1): 0.04
photoluminescence quantum yield (in ClC(Cl)Cl): 0.01

SMILES: CCC1=C(C)C2=Cc3cc(I)cn3[B-](F)(F)[N+]2=C1C
photoluminescence quantum yield (in C1CCCCC1): 0.113
photoluminescence quantum yield (in CC(C)=O): 0.063
photoluminescence quantum yield (in CCO): 0.07
photoluminescence quantum yield (in CCOC(C)=O): 0.078
photoluminescence quantum yield (in CO): 0.069
photoluminescence quantum yield (in OCC(F)(F)F): 0.05

More lines, main results first:

photoluminescence quantum yield (in CO): 0.15
SMILES: CC1(C)C(/C=C/C2=C(Oc3ccc(CCN=C=S)cc3I)C(=C/C=C3/N(CCCS(=O)(=O)[O-])c4ccccc4C3(C)C)/CCC2)=[N+](CCCS(=O)(=O)[O-])c2ccccc21

photoluminescence quantum yield (in ClC(Cl)Cl): 0.01
SMILES: C[Si]1(C)O[Si](C)(C)c2cc3cc4c(cc3cc21)C(=O)c1cc2cc3c(cc2cc1C4=O)[Si](C)(C)O[Si]3(C)C

photoluminescence quantum yield (in CS(C)=O): 0.62
SMILES: c1ccc(-c2nc3sc4cc5c(cc4c3s2)OCO5)cc1

photoluminescence quantum yield (in CO): 0.001
SMILES: COc1ccc(/C=C(\c2ccccc2)c2nc3ccccc3s2)cc1

photoluminescence quantum yield (in ClCCl): 0.0468
SMILES: CCCCCCOc1cc(/C=C/c2cc(OCCCCCC)c(/C=C/c3cc(OCCCCCC)c(C=C4C(=O)c5ccccc5C4=O)cc3OCCCCCC)cc2OCCCCCC)c(OCCCCCC)cc1C=C1C(=O)c2ccccc2C1=O

photoluminescence quantum yield (in CC#N): 0.41
SMILES: CCOC(=O)c1c2c3c(ccc(Cl)c3c3cc4ccccc4cc13)N(C)C2=O

photoluminescence quantum yield (in ClCCl): 0.18
SMILES: Cc1cc(-c2ccc(C(C)(C)C)cc2)c2nsnc2c1-c1ccc(N(c2ccccc2)c2ccccc2)cc1

photoluminescence quantum yield (in C1CCOC1): 0.3
SMILES: Cc1ccc(-c2ccc(-c3ccc(-c4ccc(-c5ccc(C)cc5)cc4)c(/C(=C(/c4ccccc4)c4cc(-c5ccc(-c6ccc(C)cc6)cc5)ccc4-c4ccc(-c5ccc(C)cc5)cc4)c4ccccc4)c3)cc2)cc1

photoluminescence quantum yield (in ClC(Cl)Cl): 0.37
SMILES: CCCCCCCCCCOc1cc(OCCCCCCCCCC)cc(C2=C3C(C)=CC(/C=C/c4ccc(OC)cc4)=[N+]3[B-](F)(F)n3c(/C=C/c4ccc(OC)cc4)cc(C)c32)c1

photoluminescence quantum yield (in O): 0.77
SMILES: CCCCn1c(-c2ccc(-c3ccc(-c4ccc(-c5n(CCCC)c6ccccc6[n+]5CCCC)cc4)cc3)cc2)[n+](CCCC)c2ccccc21

photoluminescence quantum yield (in CN(C)C=O): 0.86
SMILES: Cc1ccc2[nH]c(-c3ccc(-c4ccc(-c5ccc(-c6nc7cc(C)ccc7[nH]6)cc5)c(C)c4)cc3)nc2c1

photoluminescence quantum yield (in ClCCl): 0.5
SMILES: CC[C@H](C)COc1ccc(C2=C3C(C)=C(c4ccc5ccc6cccc7ccc4c5c67)C(C)=[N+]3[B-](F)(F)n3c(C)c(-c4ccc5ccc6cccc7ccc4c5c67)c(C)c32)cc1

photoluminescence quantum yield (in C1CCOC1): 0.061
SMILES: N#Cc1cc(-n2c3ccccc3c3ccccc32)c(-n2c3ccccc3c3cc(Br)ccc32)cc1C#N
photoluminescence quantum yield (in c1ccc2c(c1)c1ccccc1n2-c1ccc(-c2ccc(-n3c4ccccc4c4ccccc43)cc2)cc1): 0.555

photoluminescence quantum yield (in CC#N): 0.1
photoluminescence quantum yield (in CCCCCC): 0.1
photoluminescence quantum yield (in CCOC(C)=O): 0.11
photoluminescence quantum yield (in CO): 0.15
photoluminescence quantum yield (in ClCCl): 0.17
SMILES: COC1=[N+]2C(=C(c3ccccc3)c3cc(SC#N)c(OC)n3[B-]2(F)F)C=C1SC#N
